Assay [1] deals with HKU5-3CL^pro (Bat coronavirus HKU5 (BtCoV) (BtCoV/HKU5/2004), UniProt P0C6W4). The class given is biochemical.
Assay [2] deals with SARS-3CL^pro (Severe acute respiratory syndrome coronavirus (SARS-CoV), UniProt P0C6X7). The class given is biochemical.
Assay [3] addresses HKU1-3CL^pro (Human coronavirus HKU1 (isolate N1) (HCoV-HKU1), UniProt P0C6X2). Description: biochemical.
For assay [4], the target named is HKU4-3CL^pro (Bat coronavirus HKU4 (BtCoV) (BtCoV/HKU4/2004), UniProt P0C6W3). The format is biochemical.
The test system of assay [5] is Ten CoV 3CL^pro's (FIPV-, PEDV-, NL63-, HKU1-, OC43-, SARS-, HKU4-, HKU5-, HKU9-, IBV-3CL^pro). The format is biochemical, coronaviruses (α-, β-, γ-CoV).
The target in assay [6] is OC43-3CL^pro (Human coronavirus OC43 (HCoV-OC43), UniProt P0C6X6). The class given is biochemical.
The target of assay [7] is NL63-3CL^pro (Human coronavirus NL63 (HCoV-NL63), UniProt P0C6X5). Description: biochemical.
For assay [8], the target named is PEDV-3CL^pro (Porcine epidemic diarrhea virus (strain CV777) (PEDV), UniProt P0C6Y4). Description: biochemical.

Marks after values point to notes of the source that are not given here.

The IC50 is the concentration at which inhibition is half-maximal. Lower therefore signals greater potency in that assay.

HKU4-3CL^pro, sequence (P0C6W3 3292-3597 limits assumed): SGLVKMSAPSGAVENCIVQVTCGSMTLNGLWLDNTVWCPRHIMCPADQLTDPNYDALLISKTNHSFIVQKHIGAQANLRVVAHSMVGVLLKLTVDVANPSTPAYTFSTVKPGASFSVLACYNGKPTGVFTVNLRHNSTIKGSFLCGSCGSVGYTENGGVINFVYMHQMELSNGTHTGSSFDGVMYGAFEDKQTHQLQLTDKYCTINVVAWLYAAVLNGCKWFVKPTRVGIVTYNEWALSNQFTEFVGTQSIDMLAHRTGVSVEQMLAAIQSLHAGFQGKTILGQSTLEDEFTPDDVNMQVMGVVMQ
HKU1-3CL^pro, sequence (P0C6X2 3335-3637 limits assumed): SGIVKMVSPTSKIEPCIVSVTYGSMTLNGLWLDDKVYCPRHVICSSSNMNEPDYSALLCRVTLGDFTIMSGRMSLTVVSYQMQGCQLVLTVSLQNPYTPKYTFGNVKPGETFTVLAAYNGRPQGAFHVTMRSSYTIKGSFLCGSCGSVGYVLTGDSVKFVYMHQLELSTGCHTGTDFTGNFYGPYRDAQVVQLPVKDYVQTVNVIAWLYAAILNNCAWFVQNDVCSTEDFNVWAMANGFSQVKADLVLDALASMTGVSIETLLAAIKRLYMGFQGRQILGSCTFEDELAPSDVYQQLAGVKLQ
OC43-3CL^pro, sequence (P0C6X6 3247-3549 limits assumed): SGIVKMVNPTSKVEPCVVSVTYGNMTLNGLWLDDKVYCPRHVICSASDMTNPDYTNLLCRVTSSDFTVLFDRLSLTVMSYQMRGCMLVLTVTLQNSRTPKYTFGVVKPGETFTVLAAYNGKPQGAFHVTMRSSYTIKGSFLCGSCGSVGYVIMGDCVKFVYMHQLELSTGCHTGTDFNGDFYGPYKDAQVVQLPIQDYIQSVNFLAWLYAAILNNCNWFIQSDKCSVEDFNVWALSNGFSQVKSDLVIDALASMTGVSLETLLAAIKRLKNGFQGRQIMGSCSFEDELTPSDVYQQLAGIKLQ
HKU5-3CL^pro, sequence (P0C6W4 3339-3644 limits assumed): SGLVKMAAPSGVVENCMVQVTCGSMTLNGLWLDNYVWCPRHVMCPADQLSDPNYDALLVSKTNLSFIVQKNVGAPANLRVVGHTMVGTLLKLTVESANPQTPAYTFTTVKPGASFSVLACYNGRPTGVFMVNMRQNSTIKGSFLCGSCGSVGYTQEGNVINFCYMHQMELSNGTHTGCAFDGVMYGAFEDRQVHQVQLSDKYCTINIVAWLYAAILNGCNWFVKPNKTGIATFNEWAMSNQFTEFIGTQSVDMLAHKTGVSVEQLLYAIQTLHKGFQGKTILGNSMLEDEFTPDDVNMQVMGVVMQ
NL63-3CL^pro, sequence (P0C6X5 2940-3242 limits assumed): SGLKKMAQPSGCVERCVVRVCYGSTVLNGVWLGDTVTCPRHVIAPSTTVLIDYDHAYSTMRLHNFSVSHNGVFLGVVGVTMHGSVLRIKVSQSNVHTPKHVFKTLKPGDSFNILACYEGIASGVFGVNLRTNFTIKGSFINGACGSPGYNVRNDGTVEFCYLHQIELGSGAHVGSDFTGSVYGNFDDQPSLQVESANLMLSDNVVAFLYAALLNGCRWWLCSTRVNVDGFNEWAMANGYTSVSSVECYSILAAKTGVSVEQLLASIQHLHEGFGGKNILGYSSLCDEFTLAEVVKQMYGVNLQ
PEDV-3CL^pro, sequence (P0C6Y4 2998-3299 limits assumed): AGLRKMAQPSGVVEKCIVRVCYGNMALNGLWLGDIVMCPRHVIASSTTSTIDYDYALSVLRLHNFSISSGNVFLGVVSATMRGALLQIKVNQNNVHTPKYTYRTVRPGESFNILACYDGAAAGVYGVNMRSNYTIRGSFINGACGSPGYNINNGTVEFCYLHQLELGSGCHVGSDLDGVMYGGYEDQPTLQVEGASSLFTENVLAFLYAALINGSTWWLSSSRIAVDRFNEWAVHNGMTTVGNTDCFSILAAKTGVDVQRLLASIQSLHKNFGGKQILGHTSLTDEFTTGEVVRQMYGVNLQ

For the molecule `COc1cccc(C(C(=O)NCc2ccccc2)N(C(=O)Cn2nnc3ccccc32)c2ccc(NC(=O)C(C)C)cc2)c1` (centres unmarked) [Compound 14, N-(4-(2-(1H-benzo[d][1,2,3]triazol-1-yl)-N-(2-(benzylamino)-1-(3-methoxyphenyl)-2-oxoethyl)acetamido)phenyl)isobutyramide], in assay [1], half-maximal inhibition (IC50) required 2.2 ± 0.3 µM and the “IC50 HKU5” value is given as “low micromolar”. In assay [2], the IC50 came out at 3.5 ± 0.4 µM and the “IC50 SARS” value is “low micromolar”. Besides, in assay [3], the IC50 came to 1.8 ± 0.3 µM and the “IC50 HKU1” value is listed as “low micromolar”. Besides, in assay [4], the IC50 was 2.4 ± 0.2 µM and the “IC50 HKU4” value is reported as “low micromolar”. Moreover, in assay [5], the “Gini Coefficient” value was determined as 0.33 and the “Score (performance metric score)” value turned out to be 6.6.

Regarding `CC(C)NC(=O)C(c1ccsc1)N(C(=O)Cn1nnc2ccccc21)c1ccc(NC(=O)C2CC2)cc1` (centres unmarked) [Compound 29, N-(4-(2-(1H-benzo[d][1,2,3]triazol-1-yl)-N-(2-(isopropylamino)-2-oxo-1-(thiophen-3-yl)ethyl)acetamido)phenyl)cyclopropanecarboxamide], the IC50 in assay [1] was 2.4 ± 0.3 µM; in assay [2] it was 8.3 ± 1.5 µM; in assay [6], 11.1 ± 1.2 µM; in assay [4], 2 ± 0.2 µM; in assay [7] it was 8.1 ± 1.6 µM. Also, the “Score (performance metric score)” value in assay [5] is reported as 6.3*.

`CC(C)C(=O)Nc1ccc(N(C(=O)Cn2cnc3ccccc32)C(C(=O)NCc2ccccc2)c2cccc(F)c2)cc1` (centres unmarked) [Compound 19, N-(4-(2-(1H-benzo[d]imidazol-1-yl)-N-(2-(benzylamino)-1-(3-fluorophenyl)-2-oxoethyl)acetamido)phenyl)isobutyramide]: the IC50 in assay [1] is 2.9 ± 0.3 µM; in assay [6], 3.9 ± 0.4 µM; in assay [3], 3.7 ± 0.6 µM; in assay [4] it was 2.5 ± 0.2 µM. In addition, the “Gini Coefficient” value in assay [5] was found to be 0.31. The “Score (performance metric score)” value in assay [5] is listed as 6.8.

`CC(C)(C)NC(=O)C(c1ccsc1)N(C(=O)Cn1cnc2ccccc21)c1ccc(NC(=O)C2CC2)cc1` (centres unmarked) [Compound 27, N-(4-(2-(1H-benzo[d]imidazol-1-yl)-N-(2-(tert-butylamino)-2-oxo-1-(thiophen-3-yl)ethyl)acetamido)phenyl)cyclopropanecarboxamide]: the figures for the IC50 in assay [1], in assay [6] and in assay [4] were 9.7 ± 1.6 µM, 16.3 ± 2.1 µM and 9.6 ± 1 µM, respectively. Also, the “Gini Coefficient” value in assay [5] was 0.37. Also, the “Score (performance metric score)” value in assay [5] turned out to be 11.0.

As for `O=C(Nc1ccc(N(C(=O)Cn2nnc3ccccc32)C(C(=O)NCc2ccccc2)c2ccsc2)cc1)C1CC1` (centres unmarked) [Compound 37, N-(4-(2-(1H-benzo[d][1,2,3]triazol-1-yl)-N-(2-(benzylamino)-2-oxo-1-(thiophen-3-yl)ethyl)acetamido)phenyl)cyclopropanecarboxamide], the IC50 in assay [1] amounted to 0.8 ± 0.1 µM; in assay [2] it was 2 ± 0.2 µM; in assay [6], 2.2 ± 0.2 µM; in assay [4] it was 0.6 ± 0.04 µM; in assay [7], 3 ± 0.3 µM. Moreover, in assay [5], the “Score (performance metric score)” value is listed as 5.3*.

Consider `CC(C)(C)NC(=O)C(c1cccnc1)N(C(=O)c1c[nH]cn1)c1ccc(C2CC2)cc1` (centres unmarked) [Compound 39, N-(2-(tert-butylamino)-2-oxo-1-(pyridin-3-yl)ethyl)-N-(4-cyclopropylphenyl)-1H-imidazole-4-carboxamide], for which the IC50 in assay [1] was determined as 15.7 ± 2 µM; in assay [2], 12.7 ± 2.5 µM; in assay [8] it was 17.6 ± 2.6 µM; in assay [3] it was 2 ± 1.1 µM; in assay [4], 16.6 ± 1.7 µM. The “Gini Coefficient” value in assay [5] was 0.19. The “Score (performance metric score)” value in assay [5] is listed as 7.6. Also, the “number of 3CL^pro's inhibited” value in assay [5] is given as “five out of ten”.
